Measurements: US20240246959A1, “BENZIMIDAZOLE DERIVATIVE AND PREPARATION METHOD THEREFOR AND MEDICAL USE THEREOF” (Shenzhen Salubris Pharmaceuticals Co., Ltd., priority 2020, published 2024)

Key:
human GLP-1 R = molecular target: T1, human GLP-1 R (Homo sapiens, UniProt P43220); assay: cAMP signal activation in human GLP1R cells (hGLP1R-U2OS, HTRF); assay type: cell-based
T1 construct: expressed in transfected cells
Protocol: A cell line stably expressing human GLP1 R (hGLP1R-U2OS) was used in this experiment. The cells were cultured in a growth medium (complete medium, DMEM+10% FBS+500 μg/mL G418 (Promega)) in an incubator at 37° C. and has 5% CO2 saturated humidity.
hGLP1R-U2OS was inoculated into 384-well plate with 1.0×10^4 cells/well (5 μL) (cell working solution: DMEM+0.1% BSA+1 mM IBMX (available from Bide Pharmatech Ltd.)), and was placed in an incubator at 37° C. and held for 30 min. The compounds to be tested were diluted stage-by-stage with Stimulation Buffer 1 (1×) in the kit, and the diluted compounds were added to the culture plate with 5 μL/well. They were incubated in an incubator at 37° C. for 30 min. Then, 5 μL/well of cAMP-d2 prepared with Lysis & Detection buffer and 5 μL/well of Anti CAMP-Cryptate working solution were added successively, and they were incubated at room temperature for 60 min before detection.
The ratio of signal emitted by donor to […] in each well was calculated as follows: HTRF rate=signal at 665 nm/signal at 620 nm×104, and then the HTRF rate was converted into a reaction rate (%). The concentration-response curve of each Example compound was created by a 4-parameter equation as Y=Bottom+(Top−Bottom)/(1+10^((Log IC50−X)*HillSlope)), and the half maximal (50%) effective concentration (EC50) was calculated.

[1] = Pharmacokinetic study on rat; assay type: in vivo, SD rats; settings: for F: 5 mg/kg p.o vs 1 mg/kg i.v; for AUC(0-t) / Cmax / clearance / half-life: male, Sprague-Dawley (SD), plasma
Excerpt: • SD rats: male, 180-250 g, purchased from Beijing Vital River Laboratory Animal Technology Co., Ltd. • Reagents: DMSO (dimethyl sulfoxide), PEG-400 (polyethylene glycol 400), physiological saline, heparin, acetonitrile, formic acid, and propranolol (internal standard), all of which are commercially available. • Instruments: Thermo Fisher Scientific LC-MS (U300 UPLC, TSQ QUANTUMN ULTRA triple quadrupole mass spectrometer).
A compound was weighed and dissolved in a DMSO-PEG-400-physiological saline (5:60:35, v/v/v) system. After the rats were administered with the compound intravenously or by gavage, 200 μL of venous blood samples were collected at 15 min, 30 min, 1 h, 2 h, 5 h, 7 h, and 24 h (for i.v. group an additional collection was performed at 5 min) in heparinized EP tubes respectively, which were centrifuged at 12,000 rpm for 2 min, and the plasma was frozen at −80° C. for further testing. A certain amount of the test substance was precisely weighed and dissolved in DMSO to obtain a stock solution with a concentration of 2 mg/mL. An appropriate amount of the stock solution of the compound was accurately pipetted and diluted with acetonitrile to prepare a standard series solution. 20 μL of each of the above standard series solution was accurately pipetted, added with 180 μL of blank plasma, and vortexed mixed to prepare plasma samples corresponding to plasma concentrations of 0.3, 1, 3, 10, 30, 100, 300, 1000, 3000 ng/mL. Two-sample analysis was performed for each concentration to establish a standard curve. 30 μL of plasma (for samples that are obtained at 5 min, 15 min, 30 min, and 1 h after intravenous administration, the plasma were diluted 10 times) was taken, added with 200 μL of a solution of internal standard propranolol in acetonitrile (50 ng/ml), and vortexed mixed. The mixture was then added with 100 μL of pure water, and vortexed and mixed again. It was centrifuged at 4000 rpm for 5 min, and the supernatant was collected for LC-MS analysis. LC-MS detection conditions were as follows. • Chromatographic column: Thermo Scientific HYPERSIL GOLD C-18 UPLC column, 100*2.1 mm, 1.7 μm. • Mobile phase: water (with 0.1% formic acid)-acetonitrile; gradient elution was performed according to the table below.
After blood drug concentrations was detected by LC-MS, WinNonlin 6.1 software was used to calculate pharmacokinetic parameters based on non-compartmental model.

T1 sequence (P43220 24-463): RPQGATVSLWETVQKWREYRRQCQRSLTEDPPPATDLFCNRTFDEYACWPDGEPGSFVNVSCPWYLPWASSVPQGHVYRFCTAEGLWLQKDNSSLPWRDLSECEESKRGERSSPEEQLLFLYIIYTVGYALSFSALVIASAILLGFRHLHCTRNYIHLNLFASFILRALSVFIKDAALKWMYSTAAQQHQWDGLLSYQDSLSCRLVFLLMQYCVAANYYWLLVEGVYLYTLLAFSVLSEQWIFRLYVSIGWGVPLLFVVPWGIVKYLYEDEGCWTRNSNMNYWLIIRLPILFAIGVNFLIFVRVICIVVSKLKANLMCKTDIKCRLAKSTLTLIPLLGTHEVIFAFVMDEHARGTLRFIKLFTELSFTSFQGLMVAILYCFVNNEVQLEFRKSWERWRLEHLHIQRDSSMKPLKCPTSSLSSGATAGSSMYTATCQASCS

## C[C@@H](c1nc2ccc(C(=O)O)cc2n1C[C@@H]1CCO1)N1CCC(c2cccc(OCc3ccc(Cl)cc3F)n2)C(O)C1 (stereo partly drawn) [Example 31, 2-((1S)-1-((3,4-trans)-4-(6-((4-chloro-2-fluorobenzyl)oxy)pyridin-2-yl)-3-hydroxypiperidin-1-yl)ethyl)-1-(((S)-oxetan-2-yl)methyl)-1H-benzo[d]imidazol-6-carboxylic acid]
Human GLP-1 R
  EC50: 14.4 nM

## C[C@@H](c1nc2ccc(C(=O)O)nc2n1C[C@@H]1CCO1)N1CCC(c2cccc(OCc3ccc(C#N)cc3F)n2)CC1 [Example 15, 2-((S)-1-(4-(6-((4-cyano-2-fluorobenzyl)oxy)pyridin-2-yl)piperidin-1-yl)ethyl)-3-(((S)-oxetan-2-yl)methyl)-3H-imidazo[4,5-b]pyridin-5-carboxylic acid]
Human GLP-1 R
  EC50: 2.57 nM

## C[C@@H](c1nc2ccc(C(=O)O)cc2n1C[C@@H]1CCO1)N1CCC(c2cccc(OCc3ccc4cnn(CC(F)F)c4c3)n2)CC1 [Example 8, 2-((S)-1-(4-(6-((1-(2,2-difluoroethyl)-1H-indazol-6-yl)methoxy)pyridin-2-yl)piperidin-1-yl)ethyl)-1-(((S)-oxetan-2-yl)methyl)-1H-benzo[d]imidazol-6-carboxylic acid]
Human GLP-1 R
  EC50: 10.3 nM

## C[C@@H](c1nc2ccc(C(=O)O)nc2n1C[C@@H]1CCO1)N1CCN(c2cccc(OCc3ccc(C#N)cc3F)n2)CC1 [Example 51A, 2-((S)-1-(4-(6-((4-cyano-2-fluorobenzyl)oxy)pyridin-2-yl)piperazin-1-yl)ethyl)-3-(((S)-oxetan-2-yl)methyl)-3H-imidazo[4,5-b]pyridin-5-carboxylic acid]
[1]
  F: 34.3%
[1]; iv, 1 mg/kg, i.v
  AUC(0-t): 613 ng·h/mL
  Cmax: 1990 ng/mL
  clearance: 27.2 mL/min/kg
  half-life: 0.71 h
[1]; po, 5 mg/kg, p.o
  AUC(0-t): 1050 ng·h/mL
  Cmax: 323 ng/mL
  half-life: 1.06 h
Human GLP-1 R
  EC50: 2.28 nM

## C[C@@H](c1nc2ccc(C(=O)O)nc2n1C[C@@H]1CCO1)N1CCC(c2cccc(OCc3cccc4cc(F)cnc34)n2)CC1 [Example 19, 2-((S)-1-(4-(6-((3-fluoroquinolin-8-yl)methoxy)pyridin-2-yl)piperidin-1-yl)ethyl)-3-(((S)-oxetan-2-yl)methyl)-3H-imidazo[4,5-b]pyridin-5-carboxylic acid]
Human GLP-1 R
  EC50: 3.94 nM

## C[C@@H](c1nc2ccc(C(=O)O)nc2n1C[C@@H]1CCO1)N1CCN(c2cccc(OCc3ccc(Cl)cc3F)n2)CC1 [Example 52A, 2-((S)-1-(4-(6-((4-chloro-2-fluorobenzyl)oxy)pyridin-2-yl)piperazin-1-yl)ethyl)-3-(((S)-oxetan-2-yl)methyl)-3H-imidazo[4,5-b]pyridin-5-carboxylic acid]
[1]
  F: 76.6%
[1]; iv, 1 mg/kg, i.v
  AUC(0-t): 1130 ng·h/mL
  Cmax: 2050 ng/mL
  clearance: 14.7 mL/min/kg
  half-life: 0.95 h
[1]; po, 5 mg/kg, p.o
  AUC(0-t): 4330 ng·h/mL
  Cmax: 1160 ng/mL
  half-life: 2.77 h
Human GLP-1 R
  EC50: 2 nM

## C[C@@H](c1nc2ccc(C(=O)O)cc2n1C[C@@H]1CCO1)N1CCC(c2cccc(OCc3ccc(Br)cc3F)n2)CC1 [Example 13, 2-((S)-1-(4-(6-((4-bromo-2-fluorobenzyl)oxy)pyridin-2-yl)piperidin-1-yl)ethyl)-1-(((S)-oxetan-2-yl)methyl)-1H-benzo[d]imidazol-6-carboxylic acid]
Human GLP-1 R
  EC50: 18.7 nM

## C[C@@H](c1nc2ccc(C(=O)O)cc2n1C[C@@H]1CCO1)N1CCN(c2cc(C(F)(F)F)cc(OCc3ccc(C#N)cc3F)n2)CC1 [Example 44, 2-((S)-1-(4-(6-((4-cyano-2-fluorobenzyl)oxy)-4-(trifluoromethyl)pyridin-2-yl)piperazin-1-yl)ethyl)-1-(((S)-oxetan-2-yl)methyl)-1H-benzo[d]imidazol-6-carboxylic acid]
[1]
  F: 57.3%
[1]; iv, 1 mg/kg, i.v
  AUC(0-t): 2260 ng·h/mL
  Cmax: 4360 ng/mL
  clearance: 7.37 mL/min/kg
  half-life: 0.69 h
[1]; po, 5 mg/kg, p.o
  AUC(0-t): 6470 ng·h/mL
  Cmax: 1410 ng/mL
  half-life: 2.9 h

## C[C@@H](c1nc2ccc(C(=O)O)nc2n1C[C@@H]1CCO1)N1CCC(c2cccc(OCc3ccc4cnn(CC(F)(F)F)c4c3)n2)CC1 [Example 17, 3-(((S)-oxetan-2-yl)methyl)-2-((S)-1-(4-(6-((1-(2,2,2-trifluoroethyl)-1H-indazol-6-yl)methoxy)pyridin-2-yl)piperidin-1-yl)ethyl)-3H-imidazo[4,5-b]pyridin-5-carboxylic acid]
Human GLP-1 R
  EC50: 2.92 nM

## C[C@@H](c1nc2ccc(C(=O)O)cc2n1C[C@@H]1CCO1)N1CCC(c2cccc(OCc3ccc(Cl)cc3F)n2)CC1 [Example 1A, 2-((S)-1-(4-(6-((4-chloro-2-fluorobenzyl)oxy)pyridin-2-yl)piperidin-1-yl)ethyl)-1-(((S)-oxetan-2-yl)methyl)-1H-benzo[d]imidazol-6-carboxylic acid]
[1]
  F: 49.0%
[1]; iv, 1 mg/kg, i.v
  AUC(0-t): 2430 ng·h/mL
  Cmax: 2310 ng/mL
  clearance: 6.88 mL/min/kg
  half-life: 2.89 h
[1]; po, 5 mg/kg, p.o
  AUC(0-t): 5950 ng·h/mL
  Cmax: 747 ng/mL
  half-life: 3.4 h
Human GLP-1 R
  EC50: 1.71 nM

## C[C@@H](c1nc2ccc(C(=O)O)cc2n1C[C@@H]1CCO1)N1CCC(c2cccc(OCc3ccc4cnn(CC(F)(F)F)c4c3)n2)CC1 [Example 9, 1-(((S)-oxetan-2-yl)methyl)-2-((S)-1-(4-(6-((1-(2,2,2-trifluoroethyl)-1H-indazol-6-yl)methoxy)pyridin-2-yl)piperidin-1-yl)ethyl)-1H-benzo[d]imidazol-6-carboxylic acid]
Human GLP-1 R
  EC50: 3.48 nM

## C[C@@H](c1nc2ccc(C(=O)O)nc2n1C[C@@H]1CCO1)N1CCC(c2cccc(OCc3ccnc4cc(F)ccc34)n2)CC1 [Example 18, 2-((S)-1-(4-(6-((7-fluoroquinolin-4-yl)methoxy)pyridin-2-yl)piperidin-1-yl)ethyl)-3-(((S)-oxetan-2-yl)methyl)-3H-imidazo[4,5-b]pyridine-5-carboxylic acid]
Human GLP-1 R
  EC50: 2.66 nM

## C[C@@H](c1nc2ccc(C(=O)O)cc2n1C[C@@H]1CCO1)N1CCN(c2cccc(OCc3ccc(Cl)cc3F)n2)CC1 [Example 39A]
Human GLP-1 R
  EC50: 15.5 nM

## C[C@@H](c1nc2ccc(C(=O)O)cc2n1C[C@@H]1CCO1)N1CCN(c2ncc(F)c(OCc3ccc(C#N)cc3F)n2)CC1 [Example 42, 2-((S)-1-(4-(4-((4-cyano-2-fluorobenzyl)oxy)-5-fluoropyrimidin-2-yl)piperazin-1-yl)ethyl)-1-(((S)-oxetan-2-yl)methyl)-1H-benzo[d]imidazol-6-carboxylic acid]
Human GLP-1 R
  EC50: 12 nM

## C[C@@H](c1nc2ccc(C(=O)O)cc2n1C[C@@H]1CCO1)N1CCN(c2cc(C#N)cc(OCc3ccc(C#N)cc3F)n2)CC1 [Example 45, 2-((S)-1-(4-(4-cyano-6-((4-cyano-2-fluorobenzyl)oxo)pyridin-2-yl)piperazin-1-yl)ethyl)-1-(((S)-oxetan-2-yl)methyl)-1H-benzo[d]imidazol-6-carboxylic acid]
Human GLP-1 R
  EC50: 24.6 nM

## C[C@@H](c1nc2ccc(C(=O)O)nc2n1C[C@@H]1CCO1)N1CCC(c2cccc(OCc3ccc4cnn(CC(F)F)c4c3)n2)CC1 [Example 11, 2-((S)-1-(4-(6-((1-(2,2-difluoroethyl)-1H-indazol-6-yl)methoxy)pyridin-2-yl)piperidin-1-yl)ethyl)-3-(((S)-oxetan-2-yl)methyl)-3H-imidazo[4,5-b]pyridin-5-carboxylic acid]
Human GLP-1 R
  EC50: 3.45 nM
